A word on the IC50: it is the point on the concentration scale where inhibition reaches its midpoint.

The structures appear in SMILES notation. Where two headings read alike, the source gives them in different places. Where a SMILES comes first, the peptide text is derived from it. Bridges are numbered along the chain shown (N, C = ends). [ ]: non-standard residue; d: D form. The star is where a group is joined. DOTA = O=C(O)CN1CCN(CC(=O)O)CCN(CC(=O)*)CCN(CC(=O)O)CC1; Pro(cis-4-F) = O=C(O)[C@@H]1C[C@H](F)CN1; Tyr(3-NH2) = Nc1cc(C[C@H](N)C(=O)O)ccc1O; Phe(2-Cl) = N[C@@H](Cc1ccccc1Cl)C(=O)O; Hyp = O=C(O)[C@@H]1C[C@@H](O)CN1; Cit = NC(=O)NCCC[C@H](N)C(=O)O; Butoxycarbonyl = CCCCOC(=O)*; Orn = NCCC[C@H](N)C(=O)O; Nva = CCC[C@H](N)C(=O)O; Pentanoyl = CCCCC(=O)*

For one assay, the target named is T1, human uPAR (uPAR-Fc) (Homo sapiens, UniProt Q03405).
T1 construct: comprising amino acids Leu23-Arg303 according to UniProt entry Q03405.1; purchased R&D Systems 10378-UK-100
As to the kind of experiment: Surface plasmon resonance (SPR) assay, single cycle kinetics. It counts as binding. To be noted: pKD category for uPAR SPR activity assay, uPAR-Fc on Protein A-Chip, 25°C, read-out: pKD CAT (converted). The method, then: Surface plasmon resonance (SPR) is an optical technique used to measure molecular interactions in real time. SPR occur when plane-polarized light hits a metal film under total internal reflection conditions. SPR signal is directly dependent on the refractive index of the medium on the sensor chip. In an SPR experiment, one molecule (i.e. uPAR) is immobilized on a sensor chip and binding to a second molecule (i.e. test compounds) is measured under flow. The binding of the compound on the surface changes the refractive index. In responses the reflection angle changes as compounds bind and dissociate on the immobilized protein on the surface. This response is measured in resonance units (RU). The RUs are proportional to the number of molecules bound to the surface. […] Kinetic binding constants and equilibrium binding constants can be derived from the sensorgrams.
Surface plasmon resonance (SPR) studies were performed using a Biacore™ T200 or S200 SPR system (Cytiva, formerly GE Life Sciences) to assess binding of compounds to recombinant uPAR protein.
In this example recombinant protein comprising the extracellular domains of human uPAR (uPAR-Fc, R&D Systems, CAT 10378-UK-100, comprising amino acids Leu23-Arg303 according to UniProt entry Q03405.1 and Fc region of human IgG1 at the C-terminus) was immobilized on a Protein A-Chip (Cytiva, CAT 29127555) according to the supplier's instructions. uPAR-Fc was diluted in Running Buffer (10 mM HEPES, 150 mM NaCl, 50 µM EDTA, 0.1% DMSO, 0.05% Tween-20, pH 7.4) to a final concentration of 100 nM and then flushed over the Protein A-Chip to immobilized ~2000 RUs.
Stock solutions of test compounds were prepared by dissolving each compound in DMSO. DMSO stock solution were diluted 1: 1000 in Running Buffer without DMSO. Further sequential dilutions were made with Running Buffer containing 0.1% DMSO. SPR binding analyses were performed in Single Cycle Kinetic (SCK) mode at 25°C. Flow cell without immobilized uPAR-Fc served as reference flow cell. The chip was regenerated with 10 mM Glycine, pH 1,5 to remove the uPAR-Fc from the chip surface after each SCK run. After every three SCK measurements, a blank run with Running Buffer instead of test compound was included to correct for baseline drifts (double reference substraction method). Table 11: SPR protocol steps for SCK with uPAR-Fc immobilized on a Protein A-Chip.
For each test compound, SPR raw data sensorgrams were recorded using the Biacore™ T200 or S200 control software. Sensorgrams were processed and analyzed with the Biacore™ Insight Evaluation software. […] The reference subtracted sensorgram for each test compound was further corrected for baseline drift by subtracting the sensorgram of a reference subtracted blank run (Running Buffer only). The dissociation constant (KD) was calculated from the double reference subtracted sensorgrams using the 1:1 Langmuir binding model. The pKD value (negative decadic logarithm of dissociation constant) was calculated using Microsoft Excel.
For orientation: Surface plasmon resonance follows binding to a sensor surface in real time, without labels.

The target in assay [1] is T2, uPAR-expressing HEC-265 human endometrial adenocarcinoma cells (Homo sapiens, UniProt Q03405).
T2 construct: Cell surface uPAR-expressing HEC-265 human endometrial adenocarcinoma cells; host or cells: HEC-265
The assay is described as follows: Competitive FACS binding assay. To be noted: pIC50 category of FACS binding. The method, then:
In order to determine binding of compounds according to the present invention to uPAR-expressing cells, a competitive FACS binding assay was established.
Cell surface uPAR-expressing HEC-265 human endometrial adenocarcinoma cells (Japanese Collection of Research Bioresources, #JCRB1142) were cultured in MEM Eagle with stable glutamine (Pan Biotech, #P04-09500) including 15% fetal bovine serum (Pan Biotech, #P30-3306) and 100 U/ml penicillin and 100 µg/mL streptomycin (Pan Biotech, #P06-07100). Cells were detached with Cell Dissociation Buffer (Thermo Scientific, #13151014) and washed in FACS buffer (PBS (Pan Biotech, #P04-36500) including 1% BSA (SeraCare, #AP-4510-80). Cells were diluted in FACS buffer to a final concentration of 500.000 cells per ml and 200 µl of the cell suspension are transferred to a u-shaped non-binding 96-well plate (Greiner Bio-One, #650901).
For IC50 determination, cells were incubated with 10 nM Bio--Ttds--Ttds--Ttds--Ttds-D-Cha-FsrYLWS-NH2) in the presence of increasing concentrations of non-labeled test compounds at 4°C for 1 hour. Cells were washed twice in FACS buffer. An additional incubation step with 1 µg/mL APC-Streptavidin (Miltenyi; #130-106-791) in 50 µL FACS buffer for 30 minutes on ice was performed followed by two washes with FACS buffer. Cells were resuspended in 200 µl FACS buffer and analyzed in an Attune NxT flow cytometer. Median fluorescence intensities (APC channel) were calculated by Attune NxT software and plotted against peptide concentrations. Four parameter logistic (4PL) curve fitting and pIC50 calculations were performed using ActivityBase software.
(A flow cytometer gives signals particle by particle.)

T2 sequence (Q03405 23-335): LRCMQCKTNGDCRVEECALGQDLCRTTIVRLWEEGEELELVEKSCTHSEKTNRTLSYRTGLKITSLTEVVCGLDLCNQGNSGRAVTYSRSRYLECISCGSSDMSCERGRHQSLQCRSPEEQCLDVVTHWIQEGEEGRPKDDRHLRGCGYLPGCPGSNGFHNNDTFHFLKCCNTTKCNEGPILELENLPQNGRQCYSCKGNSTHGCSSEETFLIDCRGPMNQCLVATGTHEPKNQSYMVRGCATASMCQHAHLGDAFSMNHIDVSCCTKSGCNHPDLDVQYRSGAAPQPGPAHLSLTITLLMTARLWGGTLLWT
T1 sequence (Q03405 23-303): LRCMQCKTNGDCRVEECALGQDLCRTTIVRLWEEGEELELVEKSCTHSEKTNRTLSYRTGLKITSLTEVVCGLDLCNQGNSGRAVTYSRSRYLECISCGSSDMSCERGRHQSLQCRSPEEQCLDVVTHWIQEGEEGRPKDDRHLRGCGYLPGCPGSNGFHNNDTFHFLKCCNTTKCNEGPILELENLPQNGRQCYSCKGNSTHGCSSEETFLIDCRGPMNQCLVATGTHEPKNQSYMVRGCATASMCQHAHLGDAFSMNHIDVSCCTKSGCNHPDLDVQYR

For `CCC[C@@H]1NC(=O)[C@H]([C@@H](C)CC)NC(=O)[C@@H]2C[C@@H](O)CN2C(=O)[C@@H]2CCCN2C(=O)[C@H](Cc2ccccc2)NC(=O)[C@H](Cc2ccc(O)cc2)NC(=O)[C@H](CCC(N)=O)NC(=O)[C@H](CCCNC(=N)N)NC(=O)[C@@H](NC(=O)[C@H](Cc2ccccc2)NC(C)=O)CSSC[C@@H](C(N)=O)NC1=O` [UPAR-488, Ac-Phe-[Cys-Arg-Gln-Tyr-Phe-Pro-Hyp-Ile-Nva-Cys]-NH2] (Ac-FCRQYFP[Hyp]I[Nva]C-NH2; disulfide 2-11), the Kd at human uPAR (uPAR-Fc) (single cycle kinetics) was less than 1.58 nM.

As for `CCCCOC(=O)N[C@H]1CSSC[C@@H](C(N)=O)NC(=O)[C@H](CCC)NC(=O)[C@H]([C@@H](C)CC)NC(=O)[C@@H]2C[C@@H](O)CN2C(=O)[C@@H]2CCCN2C(=O)[C@H](Cc2ccccc2)NC(=O)[C@H](Cc2ccc(O)cc2)NC(=O)[C@H](CCCCNC(=O)CN2CCN(CC(=O)O)CCN(CC(=O)O)CCN(CC(=O)O)CC2)NC(=O)[C@H]([C@@H](C)O)NC1=O` [UPAR-248, Butoc-[Cys-Thr-Lys(DOTA)-Tyr-Phe-Pro-Hyp-Ile-Nva-Cys]-NH2] (Butoxycarbonyl-CTK(DOTA)YFP[Hyp]I[Nva]C-NH2; disulfide 1-10), the Kd on human uPAR (uPAR-Fc) is less than 1.58 nM. The same compound gave a concentration for half-maximal inhibition (IC50) in assay [1] of no more than 10 nM.

Take `CCCCC(=O)N[C@H]1CSSC[C@@H](C(N)=O)NC(=O)[C@H](CCC)NC(=O)[C@H]([C@@H](C)CC)NC(=O)[C@@H]2C[C@@H](O)CN2C(=O)[C@@H]2CCCN2C(=O)[C@H](Cc2ccccc2Cl)NC(=O)[C@H](Cc2ccc(O)cc2)NC(=O)[C@H](CCCCNC(=O)CN2CCN(CC(=O)O)CCN(CC(=O)O)CCN(CC(=O)O)CC2)NC(=O)[C@H](CCCNC(N)=O)NC1=O` [UPAR-450, Pent-[Cys-Cit-Lys(DOTA)-Tyr-Ocf-Pro-Hyp-Ile-Nva-Cys]-NH2] (Pentanoyl-C[Cit]K(DOTA)Y[Phe(2-Cl)]P[Hyp]I[Nva]C-NH2; disulfide 1-10): the Kd at human uPAR (uPAR-Fc) (single cycle kinetics) is less than 1.58 nM. The compound further had an IC50 in assay [1] of no more than 10 nM.

Turning to `CCCCOC(=O)N[C@H]1CSSC[C@@H](C(N)=O)NC(=O)[C@H](CCC)NC(=O)[C@H]([C@@H](C)CC)NC(=O)[C@@H]2C[C@@H](O)CN2C(=O)[C@@H]2C[C@H](F)CN2C(=O)[C@H](Cc2ccccc2)NC(=O)[C@H](Cc2ccc(O)c(N)c2)NC(=O)[C@H](CCCNC(=O)CN2CCN(CC(=O)O)CCN(CC(=O)O)CCN(CC(=O)O)CC2)NC(=O)[C@H]([C@@H](C)O)NC1=O` [UPAR-234, Butoc-[Cys-Thr-Orn(DOTA)-Ay3-Phe-4Cfp-Hyp-Ile-Nva-Cys]-NHz] (Butoxycarbonyl-CT[Orn](DOTA)[Tyr(3-NH2)]F[Pro(cis-4-F)][Hyp]I[Nva]C-NH2; disulfide 1-10), on human uPAR (uPAR-Fc), the Kd was less than 1.58 nM. In assay [1], this compound gave an IC50 of no more than 10 nM.

As to `CCCCC(=O)N[C@H]1CSSC[C@@H](C(N)=O)NC(=O)[C@H](CCC)NC(=O)[C@H]([C@@H](C)CC)NC(=O)[C@@H](CO)NC(=O)[C@@H]2CCCN2C(=O)[C@H](Cc2ccccc2)NC(=O)[C@H](Cc2ccc(O)cc2)NC(=O)[C@H](CCC(N)=O)NC(=O)[C@H](CCCNC(=N)N)NC1=O` [UPAR-329, Pent-[Cys-Arg-Gln-Tyr-Phe-Pro-ser-Ile-Nva-Cys]-NH2] (Pentanoyl-CRQYFP[dS]I[Nva]C-NH2; disulfide 1-10), the Kd on human uPAR (uPAR-Fc) was less than 1.58 nM. The same compound gave an IC50 in assay [1] of no more than 10 nM.

The values above are taken from EP4610269A1, “UROKINASE PLASMINOGEN ACTIVATOR SURFACE RECEPTOR (UPAR) LIGANDS FOR DIAGNOSTIC OR THERAPEUTIC USE” (3B Pharmaceuticals GmbH, priority 2024, dated 2025).
